Key:
Format in all cases: in vivo
weeds = experiment: Pre-emergence test (greenhouse), activity against weeds; conditions: in words
Protocol: Solvent: 5 parts by weight of acetone
Emulsifier: 1 part by weight of alkylaryl polyglycol ether
(§1) To produce a suitable preparation of the active compound, 1 part by weight of active compound is mixed with the stated amount of solvent, the stated amount of emulsifier is added and the concentrate is diluted with water to the desired concentration.
(§2) Seeds of the test plants are sown in normal soil. After about 24 hours, the soil is watered with the preparation of active compound. Advantageously, the amount of water per unit area is kept constant. The active compound concentration in the preparation is not important, only the active compound appliation rate per unit area matters.
(§3) After three weeks, the degree of damage to the plants is rated in % damage in comparison to the development of the untreated control.
(§4) 0%=no action (like untreated control)

Maize = experiment: Pre-emergence test/Greenhouse, Maize; conditions: in vivo
Protocol: as §1, §2, §3, §4

Solanum = experiment: Pre-emergence test/Greenhouse, Solanum; conditions: after three weeks
Protocol: as §1, §2, §3, §4

Poa = experiment: Pre-emergence test/Greenhouse, Poa; conditions: after three weeks
Protocol: as §1, §2, §3, §4

Sorghum = experiment: Pre-emergence test/Greenhouse, Sorghum; conditions: after three weeks
Protocol: as §1, §2, §3, §4

Matricaria = experiment: Pre-emergence test/Greenhouse, Matricaria; conditions: after three weeks
Protocol: as §1, §2, §3, §4

Lolium = experiment: Pre-emergence test/Greenhouse, Lolium; conditions: after three weeks
Protocol: as §1, §2, §3, §4

Ambrosia = experiment: Pre-emergence test/Greenhouse, Ambrosia; conditions: after three weeks
Protocol: as §1, §2, §3, §4

SMILES | activity against weeds (weeds) | degree of damage to the plants (% damage vs untreated control), Maize (Maize) [%] | degree of damage to the plants (% damage vs untreated control), Solanum (Solanum; 60 g of ai./ha) [%] | degree of damage to the plants (% damage vs untreated control), Matricaria (Matricaria; 60 g of ai./ha) [%] | degree of damage to the plants (% damage vs untreated control), Lolium (Lolium; 60 g of ai./ha) [%] | degree of damage to the plants (% damage vs untreated control), Solanum (Solanum; 125 g of ai./ha) [%] | degree of damage to the plants (% damage vs untreated control), Sorghum (Sorghum; 125 g of ai./ha) [%] | degree of damage to the plants (% damage vs untreated control), Matricaria (Matricaria; 125 g of ai./ha) [%] | degree of damage to the plants (% damage vs untreated control), Lolium (Lolium; 125 g of ai./ha) [%] | degree of damage to the plants (% damage vs untreated control), Poa (Poa; 125 g of ai./ha) [%] | also measured
CCOC(=O)c1scc(C)c1S(=O)(=O)NC(=O)n1nc(OC)n(C)c1=O [Example 57] | very strong activity against weeds | 0 | 95 | 95 | 95 |  |  |  |  |  | degree of damage to the plants (% damage vs untreated control), Poa (Poa; 60 g of ai./ha): 95%; degree of damage to the plants (% damage vs untreated control), Sorghum (Sorghum; 60 g of ai./ha): 95%
CCCOC(=O)c1scc(C)c1S(=O)(=O)NC(=O)n1nc(OC)n(C)c1=O [Example 89] | very strong activity against weeds | 0 |  |  |  | 100 | 90 | 100 | 100 |  | 
CCOc1nn(C(=O)NS(=O)(=O)c2c(C)csc2C(=O)OC(C)C)c(=O)n1C1CC1 [Example 85] | very strong activity against weeds | 60 |  |  |  | 100 | 95 | 100 | 95 |  | 
COC(=O)c1cccc(C)c1S(=O)(=O)NC(=O)c1ncc(C)o1 [Example 121] | very strong activity against weeds | 10 |  |  |  |  |  |  |  |  | degree of damage to the plants (% damage vs untreated control), Solanum (Solanum; 500 g of ai./ha): 95%; degree of damage to the plants (% damage vs untreated control), Sorghum (Sorghum; 500 g of ai./ha): 80%; degree of damage to the plants (% damage vs untreated control), Matricaria (Matricaria; 500 g of ai./ha): 90%; degree of damage to the plants (% damage vs untreated control), Lolium (Lolium; 500 g of ai./ha): 70%
CCOC(=O)c1scc(C)c1S(=O)(=O)NC(=O)n1nc(OCC(F)(F)F)n(C)c1=O [Example 62] | very strong activity against weeds | 0 |  |  |  | 95 | 60 | 95 | 80 | 90 | 
CCCOC(=O)c1scc(C)c1S(=O)(=O)NC(=O)n1nc(OCC)n(C2CC2)c1=O [Example 93] | very strong activity against weeds | 0 | 90 | 95 | 90 |  |  |  |  |  | degree of damage to the plants (% damage vs untreated control), Sorghum (Sorghum; 60 g of ai./ha): 80%
CCCOc1nn(C(=O)NS(=O)(=O)c2c(C)csc2C(=O)OCC)c(=O)n1C [Example 58] | very strong activity against weeds | 20 |  |  |  | 95 |  | 100 | 80 | 95 | 
CCc1nn(C(=O)NS(=O)(=O)c2c(C)csc2C(=O)OC(C)C)c(=O)n1C [Example 77] | very strong activity against weeds | 0 | 90 | 100 | 95 |  |  |  |  |  | degree of damage to the plants (% damage vs untreated control), Sorghum (Sorghum; 60 g of ai./ha): 90%
CCCOC(=O)c1scc(C)c1S(=O)(=O)NC(=O)n1nc(OCC)n(C)c1=O [Example 80] | very strong activity against weeds | 0 |  |  |  | 95 | 90 | 100 | 95 |  | 
COC(=O)c1cccc(C)c1S(=O)(=O)NC(=O)n1nc(SC)n(C2CC2)c1=O [Example 158] | very strong activity against weeds |  |  |  |  |  |  |  |  |  | 
CCSc1nn(C(=O)NS(=O)(=O)c2c(C)csc2C(=O)OC(C)C)c(=O)n1C [Example 81] | very strong activity against weeds |  | 100 | 100 | 100 |  |  |  |  |  | degree of damage to the plants (% damage vs untreated control), Sorghum (Sorghum; 60 g of ai./ha): 95%
CCOC(=O)c1scc(C)c1S(=O)(=O)NC(=O)n1nc(OC(C)C)n(C)c1=O [Example 59] | very strong activity against weeds | 0 |  |  |  | 95 |  | 100 | 100 | 70 | degree of damage to the plants (% damage vs untreated control), Ambrosia (Ambrosia; 125 g of ai./ha): 95%
CCOC(=O)c1scc(C)c1S(=O)(=O)NC(=O)c1noc(C)n1 [Example 72] | very strong activity against weeds | 10 |  |  |  | 100 |  | 100 | 90 | 70 | degree of damage to the plants (% damage vs untreated control), Ambrosia (Ambrosia; 125 g of ai./ha): 95%
CCCc1nn(C(=O)NS(=O)(=O)c2c(C)csc2C(=O)OC(C)C)c(=O)n1C [Example 108] | very strong activity against weeds | 5 |  |  |  | 90 | 95 | 95 | 90 |  | 
COc1nn(C(=O)NS(=O)(=O)c2c(C)csc2C(=O)OC(C)C)c(=O)n1C [Example 82] | very strong activity against weeds | 0 | 100 | 100 | 60 |  |  |  |  |  | degree of damage to the plants (% damage vs untreated control), Sorghum (Sorghum; 60 g of ai./ha): 90%
CCCc1nn(C(=O)NS(=O)(=O)c2c(C)csc2C(=O)OCC)c(=O)n1C [Example 67] | very strong activity against weeds | 0 | 100 | 100 | 100 |  |  |  |  |  | degree of damage to the plants (% damage vs untreated control), Sorghum (Sorghum; 60 g of ai./ha): 90%
COC(=O)c1scc(C)c1S(=O)(=O)NC(=O)n1nc(OC(C)C)n(C2CC2)c1=O [Example 53] | very strong activity against weeds | 0 |  |  |  | 95 |  | 95 | 95 | 95 | degree of damage to the plants (% damage vs untreated control), Ambrosia (Ambrosia; 125 g of ai./ha): 95%
CCCOc1nn(C(=O)NS(=O)(=O)c2c(C)csc2C(=O)OC)c(=O)n1C [Example 33] | very strong activity against weeds | 10 |  |  |  | 95 | 80 | 95 |  | 90 | degree of damage to the plants (% damage vs untreated control), Ambrosia (Ambrosia; 125 g of ai./ha): 90%
CCOC(=O)c1scc(C)c1S(=O)(=O)NC(=O)n1nc(CC)n(C)c1=O [Example 66] | very strong activity against weeds | 0 |  |  |  | 100 | 100 | 100 | 100 |  | 
CCOC(=O)c1scc(C)c1S(=O)(=O)NC(=O)n1nc(C)n(C)c1=O [Example 65] | very strong activity against weeds | 20 |  |  |  | 95 | 80 | 95 | 80 | 80 | 
CCOC(=O)c1scc(C)c1S(=O)(=O)NC(=O)n1nc(OC(C)C)n(C2CC2)c1=O [Example 70] | very strong activity against weeds | 10 | 100 | 100 | 90 |  |  |  |  |  | degree of damage to the plants (% damage vs untreated control), Ambrosia (Ambrosia; 60 g of ai./ha): 90%; degree of damage to the plants (% damage vs untreated control), Poa (Poa; 60 g of ai./ha): 90%
